Columns and labels:
Experiment in all cases: KinomeScan profiling
Format in all cases: binding
DLK = molecular target: T1, DLK (Homo sapiens, UniProt Q12852); conditions: read-out: % control
T1 sequence (Q12852 1-859): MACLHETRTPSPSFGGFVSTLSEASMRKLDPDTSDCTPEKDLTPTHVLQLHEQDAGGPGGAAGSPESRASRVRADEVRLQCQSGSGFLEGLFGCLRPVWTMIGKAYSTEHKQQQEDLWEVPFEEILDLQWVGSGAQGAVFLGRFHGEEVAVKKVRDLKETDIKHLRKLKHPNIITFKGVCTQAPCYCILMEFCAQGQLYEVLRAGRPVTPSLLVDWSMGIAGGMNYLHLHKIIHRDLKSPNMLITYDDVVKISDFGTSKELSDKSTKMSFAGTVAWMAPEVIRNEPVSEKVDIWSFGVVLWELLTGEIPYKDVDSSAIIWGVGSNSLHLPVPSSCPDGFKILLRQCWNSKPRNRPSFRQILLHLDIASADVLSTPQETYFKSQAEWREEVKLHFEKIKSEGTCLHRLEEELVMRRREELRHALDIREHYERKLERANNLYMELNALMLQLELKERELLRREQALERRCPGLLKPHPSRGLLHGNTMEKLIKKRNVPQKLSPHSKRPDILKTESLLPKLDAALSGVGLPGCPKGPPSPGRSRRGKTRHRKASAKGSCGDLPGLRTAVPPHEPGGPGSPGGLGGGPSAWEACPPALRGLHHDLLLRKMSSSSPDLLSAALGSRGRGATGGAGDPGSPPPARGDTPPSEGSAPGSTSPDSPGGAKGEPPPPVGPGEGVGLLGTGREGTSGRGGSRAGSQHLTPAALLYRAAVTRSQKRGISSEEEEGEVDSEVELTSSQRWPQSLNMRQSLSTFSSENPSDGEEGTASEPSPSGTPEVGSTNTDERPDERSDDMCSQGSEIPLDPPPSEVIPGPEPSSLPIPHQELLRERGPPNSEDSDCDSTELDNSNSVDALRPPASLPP
Summary of the method: (§1)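 Test agents were profiled at a single concentration of 1 μM (DMSO vehicle) on a near-complete set of 468 kinases. Signal is reported relative to vehicle (100%) and a fully displacing control (0%).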

TNK2 = TNK2 (Homo sapiens, UniProt Q07912); conditions: TNK2, 1 μM; read-out: % control
Summary of the method: as §1

TSSK1B = molecular target: T2, TSSK1B (Homo sapiens, UniProt Q9BXA7); conditions: read-out: % control
T2 sequence (Q9BXA7 1-367): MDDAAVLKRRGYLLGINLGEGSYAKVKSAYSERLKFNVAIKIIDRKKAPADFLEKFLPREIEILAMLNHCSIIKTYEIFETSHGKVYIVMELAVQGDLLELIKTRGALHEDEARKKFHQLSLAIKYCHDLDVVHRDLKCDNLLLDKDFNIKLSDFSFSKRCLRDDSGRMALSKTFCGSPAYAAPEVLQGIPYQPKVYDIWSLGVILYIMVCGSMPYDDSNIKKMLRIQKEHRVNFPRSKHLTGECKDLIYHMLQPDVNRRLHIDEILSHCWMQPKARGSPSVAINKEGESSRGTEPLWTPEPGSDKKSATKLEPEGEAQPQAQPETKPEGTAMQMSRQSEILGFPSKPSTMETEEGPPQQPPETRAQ
Summary of the method: as §1

ALK(L1196M) = molecular target: T3, ALK(L1196M) (Homo sapiens, UniProt Q9UM73, L1196M); conditions: read-out: % control
T3 construct: purchased KinomeScan®
Summary of the method: as §1

DAPK2 = DAPK2 (Homo sapiens, UniProt Q9UIK4); conditions: DAPK2, 1 μM; read-out: % control
Summary of the method: as §1

PHKG2 = molecular target: T4, PHKG2 (Homo sapiens, UniProt P15735); conditions: PHKG2, 1 μM; read-out: % control
T4 sequence (P15735 1-406): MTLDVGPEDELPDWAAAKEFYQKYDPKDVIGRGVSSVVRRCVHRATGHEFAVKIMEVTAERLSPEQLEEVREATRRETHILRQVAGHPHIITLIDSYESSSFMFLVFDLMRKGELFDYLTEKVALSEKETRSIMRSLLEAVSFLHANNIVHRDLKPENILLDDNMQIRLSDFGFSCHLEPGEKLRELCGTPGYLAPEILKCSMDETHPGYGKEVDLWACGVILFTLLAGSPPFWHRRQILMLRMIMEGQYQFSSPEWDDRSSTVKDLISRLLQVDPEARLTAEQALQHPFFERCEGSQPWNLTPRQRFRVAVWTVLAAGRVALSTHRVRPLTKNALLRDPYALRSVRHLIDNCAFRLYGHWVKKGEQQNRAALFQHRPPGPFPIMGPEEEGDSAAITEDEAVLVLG
Summary of the method: as §1

IRAK4 = molecular target: T5, IRAK4 (Homo sapiens, UniProt Q9NWZ3); conditions: IRAK4, 1 μM; read-out: % control
T5 construct: purchased KinomeScan®
T5 sequence (Q9NWZ3 1-460): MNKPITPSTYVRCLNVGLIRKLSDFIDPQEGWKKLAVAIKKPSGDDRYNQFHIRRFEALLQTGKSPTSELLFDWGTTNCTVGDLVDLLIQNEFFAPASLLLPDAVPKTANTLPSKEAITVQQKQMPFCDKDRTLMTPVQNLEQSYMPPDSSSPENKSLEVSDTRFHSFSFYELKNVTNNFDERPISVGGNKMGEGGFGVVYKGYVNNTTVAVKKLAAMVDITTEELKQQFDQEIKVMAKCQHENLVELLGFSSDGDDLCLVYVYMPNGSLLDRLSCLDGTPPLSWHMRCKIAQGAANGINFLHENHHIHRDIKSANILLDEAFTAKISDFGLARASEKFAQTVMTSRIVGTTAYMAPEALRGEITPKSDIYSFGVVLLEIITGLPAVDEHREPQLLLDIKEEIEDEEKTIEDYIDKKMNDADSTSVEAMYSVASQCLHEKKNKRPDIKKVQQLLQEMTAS
Summary of the method: as §1

HIPK2 = HIPK2 (Homo sapiens, UniProt Q9H2X6); conditions: HIPK2, 1 μM; read-out: % control
Summary of the method: as §1

Sequence of DAPK2 (Q9UIK4 whole entry): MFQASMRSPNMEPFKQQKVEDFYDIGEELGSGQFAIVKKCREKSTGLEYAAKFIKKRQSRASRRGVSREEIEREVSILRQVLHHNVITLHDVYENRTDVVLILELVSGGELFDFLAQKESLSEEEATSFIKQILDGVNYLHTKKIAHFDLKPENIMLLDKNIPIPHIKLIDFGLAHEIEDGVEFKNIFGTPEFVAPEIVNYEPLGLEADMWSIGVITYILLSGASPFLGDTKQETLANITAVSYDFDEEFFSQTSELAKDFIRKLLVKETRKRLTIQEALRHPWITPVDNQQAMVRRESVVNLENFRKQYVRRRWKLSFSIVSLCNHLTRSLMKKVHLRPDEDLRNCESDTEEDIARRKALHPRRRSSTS
Sequence of TNK2 (Q07912 whole entry): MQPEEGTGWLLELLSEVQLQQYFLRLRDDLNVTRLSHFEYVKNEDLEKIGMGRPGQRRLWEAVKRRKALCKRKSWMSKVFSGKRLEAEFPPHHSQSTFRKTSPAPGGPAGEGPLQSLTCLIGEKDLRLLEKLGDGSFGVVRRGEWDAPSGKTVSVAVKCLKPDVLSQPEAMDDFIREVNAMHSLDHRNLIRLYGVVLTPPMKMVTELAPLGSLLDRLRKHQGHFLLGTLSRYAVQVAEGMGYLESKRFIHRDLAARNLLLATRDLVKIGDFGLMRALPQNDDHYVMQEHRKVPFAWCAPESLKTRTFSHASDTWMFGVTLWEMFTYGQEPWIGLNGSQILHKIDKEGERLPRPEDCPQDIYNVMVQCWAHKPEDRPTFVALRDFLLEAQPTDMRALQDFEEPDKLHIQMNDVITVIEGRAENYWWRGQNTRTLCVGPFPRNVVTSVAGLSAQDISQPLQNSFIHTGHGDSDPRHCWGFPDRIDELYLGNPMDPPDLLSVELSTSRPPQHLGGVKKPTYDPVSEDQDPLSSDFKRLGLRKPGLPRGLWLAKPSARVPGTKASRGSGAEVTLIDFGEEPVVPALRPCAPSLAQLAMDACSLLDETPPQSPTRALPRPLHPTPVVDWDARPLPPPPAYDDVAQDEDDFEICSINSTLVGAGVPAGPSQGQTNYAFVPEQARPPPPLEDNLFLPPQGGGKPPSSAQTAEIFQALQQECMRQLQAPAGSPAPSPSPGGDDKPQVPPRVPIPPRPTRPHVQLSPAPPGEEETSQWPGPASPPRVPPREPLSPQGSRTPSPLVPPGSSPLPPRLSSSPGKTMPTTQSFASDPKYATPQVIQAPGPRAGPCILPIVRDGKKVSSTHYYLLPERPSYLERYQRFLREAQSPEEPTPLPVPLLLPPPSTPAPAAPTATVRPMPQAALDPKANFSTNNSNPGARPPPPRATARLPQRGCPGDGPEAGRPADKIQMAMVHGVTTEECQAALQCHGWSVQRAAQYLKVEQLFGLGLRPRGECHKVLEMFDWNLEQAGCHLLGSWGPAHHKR
Sequence of HIPK2 (Q9H2X6 whole entry): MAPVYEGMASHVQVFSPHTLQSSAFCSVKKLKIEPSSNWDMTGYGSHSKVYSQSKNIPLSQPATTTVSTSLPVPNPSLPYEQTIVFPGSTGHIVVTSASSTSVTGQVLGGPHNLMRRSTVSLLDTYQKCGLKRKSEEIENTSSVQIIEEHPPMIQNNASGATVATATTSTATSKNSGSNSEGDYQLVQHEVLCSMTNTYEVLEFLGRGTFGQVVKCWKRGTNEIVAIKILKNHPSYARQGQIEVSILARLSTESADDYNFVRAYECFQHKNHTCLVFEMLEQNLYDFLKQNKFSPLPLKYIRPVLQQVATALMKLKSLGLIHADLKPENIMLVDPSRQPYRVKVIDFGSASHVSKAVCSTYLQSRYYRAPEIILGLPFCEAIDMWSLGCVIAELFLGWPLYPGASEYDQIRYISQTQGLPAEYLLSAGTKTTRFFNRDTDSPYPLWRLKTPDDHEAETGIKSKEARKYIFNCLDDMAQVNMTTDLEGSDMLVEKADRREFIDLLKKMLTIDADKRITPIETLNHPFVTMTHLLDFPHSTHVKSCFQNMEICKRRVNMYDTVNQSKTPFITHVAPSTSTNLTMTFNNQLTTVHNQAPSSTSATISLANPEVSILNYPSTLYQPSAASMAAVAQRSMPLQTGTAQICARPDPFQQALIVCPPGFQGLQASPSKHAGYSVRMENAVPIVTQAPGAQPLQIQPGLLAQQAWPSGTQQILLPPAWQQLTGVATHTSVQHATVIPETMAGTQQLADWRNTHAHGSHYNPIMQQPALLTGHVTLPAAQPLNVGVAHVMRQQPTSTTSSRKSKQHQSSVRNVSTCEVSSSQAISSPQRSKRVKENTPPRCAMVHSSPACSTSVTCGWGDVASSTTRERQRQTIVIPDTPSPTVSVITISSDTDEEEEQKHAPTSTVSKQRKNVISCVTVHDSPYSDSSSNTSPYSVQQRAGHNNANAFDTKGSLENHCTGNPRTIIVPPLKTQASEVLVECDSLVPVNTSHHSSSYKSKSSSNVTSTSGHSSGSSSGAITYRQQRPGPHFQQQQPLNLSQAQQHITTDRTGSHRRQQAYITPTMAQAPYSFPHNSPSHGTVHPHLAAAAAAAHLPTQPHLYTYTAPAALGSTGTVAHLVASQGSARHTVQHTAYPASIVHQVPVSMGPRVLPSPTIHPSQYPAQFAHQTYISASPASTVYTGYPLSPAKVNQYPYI
T3 sequence (Q9UM73 19-1620 L1196M): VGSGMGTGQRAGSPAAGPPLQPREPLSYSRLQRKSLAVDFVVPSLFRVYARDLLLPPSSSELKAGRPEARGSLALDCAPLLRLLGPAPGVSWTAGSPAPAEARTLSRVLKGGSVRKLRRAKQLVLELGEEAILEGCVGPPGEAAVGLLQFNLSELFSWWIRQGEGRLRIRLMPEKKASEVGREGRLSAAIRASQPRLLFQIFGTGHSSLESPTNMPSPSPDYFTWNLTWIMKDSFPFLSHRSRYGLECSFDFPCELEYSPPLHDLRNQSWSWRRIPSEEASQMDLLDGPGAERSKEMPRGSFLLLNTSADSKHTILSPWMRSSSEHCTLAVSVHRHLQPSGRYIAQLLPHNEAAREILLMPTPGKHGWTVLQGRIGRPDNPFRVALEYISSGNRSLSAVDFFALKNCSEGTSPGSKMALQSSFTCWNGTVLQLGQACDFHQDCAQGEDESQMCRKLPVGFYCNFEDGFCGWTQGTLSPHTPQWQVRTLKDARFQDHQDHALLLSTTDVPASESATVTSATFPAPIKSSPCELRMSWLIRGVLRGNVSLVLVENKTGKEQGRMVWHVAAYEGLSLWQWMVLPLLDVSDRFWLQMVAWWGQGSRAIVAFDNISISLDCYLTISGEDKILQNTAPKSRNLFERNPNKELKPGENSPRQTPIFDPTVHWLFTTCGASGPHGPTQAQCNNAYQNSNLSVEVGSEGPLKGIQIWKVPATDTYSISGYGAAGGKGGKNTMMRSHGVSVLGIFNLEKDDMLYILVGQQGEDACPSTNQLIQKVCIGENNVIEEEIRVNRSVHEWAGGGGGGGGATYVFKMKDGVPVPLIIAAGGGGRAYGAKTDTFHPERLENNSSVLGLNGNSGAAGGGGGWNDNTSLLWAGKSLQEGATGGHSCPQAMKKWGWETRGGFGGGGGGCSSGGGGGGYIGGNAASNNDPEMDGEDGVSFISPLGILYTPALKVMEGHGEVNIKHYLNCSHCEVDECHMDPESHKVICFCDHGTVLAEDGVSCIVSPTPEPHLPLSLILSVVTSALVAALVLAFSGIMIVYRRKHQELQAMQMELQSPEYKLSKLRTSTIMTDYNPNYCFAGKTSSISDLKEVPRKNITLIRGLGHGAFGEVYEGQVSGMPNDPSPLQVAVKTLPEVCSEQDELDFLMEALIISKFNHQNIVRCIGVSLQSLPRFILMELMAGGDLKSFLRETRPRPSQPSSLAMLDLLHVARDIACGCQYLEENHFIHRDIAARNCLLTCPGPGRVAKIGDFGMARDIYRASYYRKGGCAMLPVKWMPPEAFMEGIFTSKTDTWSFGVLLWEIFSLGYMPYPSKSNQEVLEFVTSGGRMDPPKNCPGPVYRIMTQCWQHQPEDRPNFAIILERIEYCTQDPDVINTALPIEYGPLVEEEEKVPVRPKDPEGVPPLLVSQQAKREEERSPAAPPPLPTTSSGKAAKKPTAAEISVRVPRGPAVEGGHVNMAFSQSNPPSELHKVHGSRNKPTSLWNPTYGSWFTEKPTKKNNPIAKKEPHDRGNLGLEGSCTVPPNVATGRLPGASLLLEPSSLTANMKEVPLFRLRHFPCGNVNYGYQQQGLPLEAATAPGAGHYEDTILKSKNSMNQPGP

SMILES | remaining binding at 1 µM (DLK) [%] | remaining binding at 1 µM (TNK2) [%] | remaining binding at 1 µM (TSSK1B) [%] | remaining binding at 1 µM (ALK(L1196M)) [%] | remaining binding at 1 µM (DAPK2) [%] | remaining binding at 1 µM (PHKG2) [%] | remaining binding at 1 µM (IRAK4) [%] | remaining binding at 1 µM (HIPK2) [%]
CNc1c(-c2ccc(C(=O)N3CCC(N4CCOCC4)CC3)cc2)cnc2[nH]cc(Cl)c12 [Compound 96, (4-(3-chloro-4-(methylamino)-1H-pyrrolo[2,3-b]pyridin-5-yl)phenyl)(4-morpholinopiperidin-1-yl)methanone] | 24 | 94 | 100 | 51 | 82 | 19 | 62 | 74
O=C(c1ccc(-c2cnc3[nH]cc(Cl)c3c2NC2CCCC2)cc1)N1CCC(N2CCOCC2)CC1 [Compound 101, (4-(3-chloro-4-(cyclopentylamino)-1H-pyrrolo[2,3-b]pyridin-5-yl)phenyl)(4-morpholinopiperidin-1-yl)methanone] | 65 | 98 | 41 | 94 | 100 | 100 | 100 | 100
CNc1c(-c2cnn([C@H]3CCN(C(C)=O)C[C@@H]3F)c2)cnc2[nH]cc(Cl)c12 [Compound 77, 1-((3S,4S)-4-(4-(3-chloro-4-(methylamino)-1H-pyrrolo[2,3-b]pyridin-5-yl)-1H-pyrazol-1-yl)-3-fluoropiperidin-1-yl)ethan-1-one] | 14 | 100 | 99 | 91 | 72 | 52 | 26 | 81

— US12275731B2, “Azaindole inhibitors of wild-type and mutant forms of LRRK2” (DANA-FARBER CANCER INSTITUTE, INC., priority 2018, dated 2025)
